Data as given in US5098708A.
≈ marks a conversion by molar mass, not a printed value. Where two headings read alike, the source gives them in different places.

Columns and labels:
[1] = system: human immunodeficiency virus (HIV) LAV/BRU; conditions: CEM-F cells; drug amount reducing viral replication by 50%
Method: AZT was included as a reference compound. The methodology used in this assay is described below:
The cells and the virus were grown in LAV/CEM medium. The medium consists of RPMI 1640, supplemented with 1% L-glutamine, 100 U/ml of Penicillin, 100 μg/ml Streptomycin, 2 μg/ml Polybrene and 10% heat-inactivated fetal bovine serum (HyClone Labs). […] The virus was adapted to CEM cells, and infectious virus stocks were stored as cell-free supernatant fluids in 1 ml aliquots in liquid nitrogen. The titer of the stock was determined by an end point titration method using CEM cells in 96-well microtiter plates. The titration was done with ten replicates for each point, and the 50% tissue culture infective dose (TCID50) was calculated using the method of Reed and Muench (Amer. J. Hygiene, 27/3 (1938) 493-497).
The CEM cells (1.5×10^5 cells/ml) were placed in 96-well plates and incubated with virus for 45 minutes. After 45 minutes each compound was added in quadruplicate. At the end of the day, six supernatants were tested for presence of viral core protein p24gag in an antigen capture ELISA (Genetic Systems Company). The OD readings (absorbance at 450/630 nm) fall into three categories: Experimentals=values from wells containing cells, viral inoculum and drug; Controls=values from wells with cells and virus (100%); and Background=values from wells with viral inoculum alone. […]

[2] = system: herpes simplex virus type 1 (HSV-1); experiment: microbe, parasite or virus in culture; assay type: cell-based; conditions: for ID50 HSV-Vero cell: Table 8, 72 hours incubation, 50% inhibition of cytopathic effect
uninfected CEM cells = conditions: human, 7200 min
Method: The cells and the virus were grown in LAV/CEM medium. The medium consists of RPMI 1640, supplemented with 1% L-glutamine, 100 U/ml of Penicillin, 100 μg/ml Streptomycin, 2 μg/ml Polybrene and 10% heat-inactivated fetal bovine serum (HyClone Labs).
The toxicities of the drugs were tested against uninfected CEM cells. The CEM cells were plated as described above, and culture for five days in the presence or absence of drugs. On day five 1 μCi/well of ^3 H-thymidine was added, and cells were harvested 3 hours later. The results are expressed as toxic dose 50 (TD50) and represent the amount of drug necessary to reduce the cell proliferation by 50% as measured through thymidine incorporation.

[3] = system: Madin Darby canine kidney (MDCK) cell; experiment: Drug-induced cytotoxicity against MDCK cells without viral infection (dye-uptake assay); conditions: Table 8; 50% cytotoxicity against MDCK cell without viral infection; 4320 min
[4] = Solubility in water and organic solvents; assay type: physicochemical
influenza virus A = experiment: microbe, parasite or virus in culture; assay type: cell-based; conditions: 72 hours incubation, 50% inhibition of cytopathic effect; for ID50 Influenza virus-MDCK cell: Table 8; for IC50: unidentified influenza virus, MDCK, 72 h
Vero cell = conditions: Table 8; 50% cytotoxicity against Vero cell without viral infection; 4320 min
in vitro = conditions: monkey, vero cells
[5] = system: human immunodeficiency virus (LAVBRU strain); experiment: Anti-HIV XTT assay in CEM-SS cells; assay type: cell-based; conditions: Human immunodeficiency virus 1, 144 h, six days post infection, read-out: ED50 (XTT assay)
From the text: The antiviral effect is expressed as the concentration of compound which increases the number of viable cells in infected cultures to 50% that of the untreated, uninfected control cultures (ED50) The cellular toxicity is expressed as the concentration of compound which reduces the number of viable cells to 50% that of the untreated control (TD50).

[6] = Cellular toxicity in CEM-SS cells (XTT assay); assay type: cell-based; conditions: human
From the text: CEM-SS cells were obtained from Owen Weislow at the National Cancer Institute.

HIV antigen = experiment: Expression of HIV antigen in infected MT-4 cells by immunofluorescence; assay type: cell-based
Method: Expression of HIV antigen was examined by immunofluorescence. When MT-4 cells were infected with HIV, viral antigen positive cells increased with incubation time and all the cells became positive on day 6 after infection.

[7] = system: reverse transcriptase (RTase) derived from avian myeloblastosis virus (AMV); assay type: biochemical
[8] = Drug-induced cytotoxicity against MDCK cells without viral infection (dye-uptake assay); conditions: dog, mdck cells, TD50 Influenza virus-MDCK cell

SMILES	ED50 (p24gag antigen capture assay) [1]	ID50 HSV-Vero cell [2]	TD50 (thymidine incorporation) (uninfected CEM cells)	TD50 Influenza virus-MDCK cell [3]	Solubility in acetone [4]	Solubility in dimethylformamide and dimethyl sulfoxide [4]	Solubility in methanol [4]	Solubility in other organic solvents [4]	Solubility in water [4]	ID50 Influenza virus-MDCK cell (influenza virus A)	TD50 HSV-Vero cell (Vero cell)	also measured
C/C1=C\C=C\C2C=C(CO[C@H]3O[C@H](CO)[C@H](O)[C@H](O)[C@H]3O)C(C)CC23OC(O)C(C3=O)C(O)/C=C/C2(C)C=C(CO)C(C)CC23OC(O)C(C3=O)C(O)/C(C)=C/C=C/C2(C)C=C(CO[C@H]3O[C@H](CO)[C@H](O)[C@H](O)[C@H]3O)C(C)CC23OC(O)C(C3=O)C(O)/C=C/C2(C)C=C(C=O)C(C)CC23OC(O)C(C3=O)C1O (stereo partly shown)	2.5 µg	11 µg/mL (≈ 7.29 µM)	> 100 µg	150 µg/mL	slightly soluble	soluble	slightly soluble	practically insoluble	soluble	> 150 µg/mL	> 200 µg/mL	
Nc1nc2c(ncn2COCCO)c(=O)[nH]1 [Acyclovir]												IC50 ([2]; Human alphaherpesvirus 1, Vero, 72 h, read-out: ID50 HSV-Vero cell): 0.09 µg/mL (≈ 0.4 µM); CC50 at 72 h (in vitro): > 100 µg/mL
Cc1cn([C@H]2C[C@H](N=[N+]=[N-])[C@@H](CO)O2)c(=O)[nH]c1=O [AZT]			4.2 µg									EC50 [5]: 0.005 µg/mL (≈ 0.0187 µM); CC50 at 144 h [6]: > 500 µg/mL
C/C1=C\C=C\C2(C)C=C(CO[C@H]3O[C@H](CO)[C@H](O)[C@H](O)[C@H]3O)C(C)CC23OC(O)C(C3=O)C(O)/C=C/C2(C)C=C(C=O)C(C)CC23OC(O)C(C3=O)C(O)/C(C)=C/C=C/C2C=C(CO[C@H]3O[C@H](CO)[C@H](O)[C@H](O)[C@H]3O)C(C)CC23OC(O)C(C3=O)C(O)/C=C/C2(C)C=C(C=O)C(C)CC23OC(O)C(C3=O)C1O (stereo partly shown)	3.2 µg	11 µg/mL (≈ 7.3 µM)	> 100 µg	250 µg/mL	slightly soluble	soluble	slightly soluble	practically insoluble	soluble	150 µg/mL (≈ 99.5 µM)	> 400 µg/mL	HIV antigen positive cells (suppression) (HIV antigen; HIV-infected MT-4 cells cultured in the presence of compound): significantly suppressed; HIV antigen positive cells (HIV antigen; HIV-infected MT-4 cells, concentration higher than 50 μg/ml, FIG. 10): less than 1%; AMV reverse transcriptase % inhibition ([7]; 3 μg/ml): 96.9%; AMV reverse transcriptase activity, count ([7]; 3 μg/ml): 1,584 ± 1,292 cpm; AMV reverse transcriptase % inhibition ([7]; 6 μg/ml): 98.1%; AMV reverse transcriptase activity, count ([7]; 6 μg/ml): 976 ± 145 cpm; AMV reverse transcriptase % inhibition ([7]; 12.5 μg/ml): 98.2%; AMV reverse transcriptase activity, count ([7]; 12.5 μg/ml): 920 ± 271 cpm; AMV reverse transcriptase % inhibition ([7]; 25 μg/ml): 98.8%; AMV reverse transcriptase activity, count ([7]; 25 μg/ml): 621 ± 402 cpm; AMV reverse transcriptase % inhibition ([7]; 50 μg/ml): 99.5%; AMV reverse transcriptase activity, count ([7]; 50 μg/ml): 235 ± 73 cpm; AMV reverse transcriptase % inhibition ([7]; 100 μg/ml): 99.7%; AMV reverse transcriptase activity, count ([7]; 100 μg/ml): 159 ± 14 cpm; Inhibition of 1 unit of AMV RTase activity ([7]; concentrations higher than 3 μg/ml): more than 95%
NC(=O)c1ncn([C@@H]2O[C@H](CO)[C@@H](O)[C@H]2O)n1 [Ribavirin, reference compound]												CC50 at 72 h ([8]; Table 8, 50% cytotoxicity against MDCK cell without viral infection): > 200 µg/mL; CC50 at 72 h ([8]; Table 10, 50% cytotoxicity against MDCK cells without viral infection): > 100 µg/mL; IC50 (influenza virus A; read-out: ID50 Influenza virus-MDCK cell, Table 8): 15 µg/mL (≈ 61.4 µM); IC50 (influenza virus A; read-out: ID50 Influenza virus-MDCK cell, Table 10): 9.5 µg/mL (≈ 38.9 µM)
